How the values were obtained:
MAP3K3 = MAP3K3 (Homo sapiens, UniProt Q99759); assay: KINOMEscan: MAP3K3; format: binding; settings: 1000 nM, read-out: Percent Control
MAP4K5 = MAP4K5 (Homo sapiens, UniProt Q9Y4K4); assay: KINOMEscan: MAP4K5; format: binding; settings: 1000 nM, read-out: Percent Control
MINK = MINK (Homo sapiens, UniProt Q8N4C8); assay: KINOMEscan: MINK; format: binding; settings: 1000 nM, read-out: Percent Control
Adrenergic α1D = Adrenergic α1D (Homo sapiens, UniProt P25100); assay: Eurofins Diversity Panel; format: binding; settings: hum, Conc. 10 μM
GRK2 = GRK2 (Homo sapiens, UniProt P25098); assay: KINOMEscan: GRK2; format: binding; settings: 1000 nM, read-out: Percent Control
MLK3 = MLK3 (Homo sapiens, UniProt Q16584); assay: KINOMEscan: MLK3; format: binding; settings: 1000 nM, read-out: Percent Control
OSU-CLL = assay: Annexin V/propidium iodide flow cytometry; settings: compared with HG-3 and MEC-1; 24, 48, 72 h
Method: HG-3, MEC-1, and OSU-CLL were cultured for 24, 48, and 72 h with VIP152 or DMSO.
MTS Proliferation Studies, Annexin V/PI Flow Cytometry
For apoptosis assays of primary CLL, cells were acquired under an institutional reviewer board-approved protocol with informed consent. Leukemia cells were isolated from whole blood utilizing RosetteSep Human B Cell Enrichment Cocktail ([sequence]). Stromal
coculture was done by plating HS-5 stromal cells (50% confluent) in a 6-well plate 24 hours before the addition of CLL cells. CLL cells were added to the plate with VIP152 and allowed to incubate for four hours upon which the cells were centrifuged and replated using 50% HS-5 conditioned media. Apoptosis was measured utilizing FITC-conjugated Annexin-V and Propidium Iodide (Leinco) on a Beckmann-Coulter Cytoflex. Primary samples were excluded from analysis if the viability of the DMSO group was <40% as defined by Annexin-V/Propdium Iodide-/- cells. Single-color controls were utilized for compensation using pooled primary cell sample heated for

SIK2 = SIK2 (Homo sapiens, UniProt Q9H0K1); assay: KINOMEscan: SIK2; format: binding; settings: 100 nM, read-out: Percent Control
Imidazoline I2, Central = assay: Eurofins Diversity Panel; format: binding; settings: rat
[1] = target: Epidermal Growth Factor (EGF) (Homo sapiens, UniProt P00533); assay: Eurofins Diversity Panel; format: binding; settings: hum, Conc. 10 μM
CAMK1 = CAMK1 (Homo sapiens, UniProt Q14012); assay: KINOMEscan: CAMK1; format: binding; settings: 1000 nM, read-out: Percent Control
MAP4K2 = MAP4K2 (Homo sapiens, UniProt Q12851); assay: KINOMEscan: MAP4K2; format: binding; settings: 1000 nM, read-out: Percent Control
Prostanoid EP4 = Prostanoid EP4 (Homo sapiens, UniProt P35408); assay: Eurofins Diversity Panel; format: binding; settings: hum, Conc. 10 μM
KIT(V559D,V654A) = KIT(V559D,V654A) (Homo sapiens, UniProt P10721, V559D/V654A); assay: KINOMEscan: KIT(V559D,V654A); format: binding; settings: 1000 nM, read-out: Percent Control
TRKA = TRKA (Homo sapiens, UniProt P04629); assay: KINOMEscan: TRKA; format: binding; settings: 100 nM, read-out: Percent Control
[2] = target: T1, CDK9 in complex with Cyclin K (Homo sapiens, UniProt P50750); assay: NanoBRET target engagement assay (HEK293); format: cell-based
T1 construct: host or cells: HEK293

CASK = CASK (Homo sapiens, UniProt O14936); assay: KINOMEscan: CASK; format: binding; settings: 1000 nM, read-out: Percent Control
DLK = DLK (Homo sapiens, UniProt Q12852); assay: KINOMEscan: DLK; format: binding; settings: 1000 nM, read-out: Percent Control
AMPK-alpha1 = AMPK-alpha1 (Homo sapiens, UniProt Q13131); assay: KINOMEscan: AMPK-alpha1; format: binding; settings: 1000 nM, read-out: Percent Control
Glutamate, NMDA, Glycine = Glutamate, NMDA, Glycine (Rattus norvegicus, UniProt P35439); assay: Eurofins Diversity Panel; format: binding; settings: Conc. 10 μM
Opiate δ1 (OP1, DOP) = Opiate δ1 (OP1, DOP) (Homo sapiens, UniProt P41143); assay: Eurofins Diversity Panel; format: binding; settings: hum, Conc. 10 μM
YES = YES (Homo sapiens, UniProt P07947); assay: KINOMEscan: YES; format: binding; settings: 100 nM, read-out: Percent Control
[3] = target: JAK3(JH1domain-catalytic) (Homo sapiens, UniProt P52333); assay: KINOMEscan: JAK3(JH1domain-catalytic); format: binding; settings: 1000 nM, read-out: Percent Control
CSNK1A1 = CSNK1A1 (Homo sapiens, UniProt P48729); assay: KINOMEscan: CSNK1A1; format: binding; settings: 1000 nM, read-out: Percent Control
TAOK3 = TAOK3 (Homo sapiens, UniProt Q9H2K8); assay: KINOMEscan: TAOK3; format: binding; settings: 100 nM, read-out: Percent Control
ZAK = ZAK (Homo sapiens, UniProt Q9NYL2); assay: KINOMEscan: ZAK; format: binding; settings: 100 nM, read-out: Percent Control
MKNK1 = MKNK1 (Homo sapiens, UniProt Q9BUB5); assay: KINOMEscan: MKNK1; format: binding; settings: 1000 nM, read-out: Percent Control
DAPK2 = DAPK2 (Homo sapiens, UniProt Q9UIK4); assay: KINOMEscan: DAPK2; format: binding; settings: 1000 nM, read-out: Percent Control
CSNK2A1 = CSNK2A1 (Homo sapiens, UniProt P68400); assay: KINOMEscan: CSNK2A1; format: binding; settings: 1000 nM, read-out: Percent Control
[4] = target: Transporter, Serotonin (5-Hydroxytryptamine) (SERT) (Homo sapiens, UniProt P31645); assay: Eurofins Diversity Panel; format: binding; settings: hum, Conc. 10 μM
AKT1 = AKT1 (Homo sapiens, UniProt P31749); assay: KINOMEscan: AKT1; format: binding; settings: 1000 nM, read-out: Percent Control
TRKC = TRKC (Homo sapiens, UniProt Q16288); assay: KINOMEscan: TRKC; format: binding; settings: 100 nM, read-out: Percent Control
Muscarinic M2 = Muscarinic M2 (Homo sapiens, UniProt P08172); assay: Eurofins Diversity Panel; format: binding; settings: hum, Conc. 10 μM
MARK2 = MARK2 (Homo sapiens, UniProt Q7KZI7); assay: KINOMEscan: MARK2; format: binding; settings: 1000 nM, read-out: Percent Control
SGK = SGK (Homo sapiens, UniProt O00141); assay: KINOMEscan: SGK; format: binding; settings: 100 nM, read-out: Percent Control
BMPR1A = BMPR1A (Homo sapiens, UniProt P36894); assay: KINOMEscan: BMPR1A; format: binding; settings: 1000 nM, read-out: Percent Control
[5] = target: RSK2(Kin.Dom.2-C-terminal) (Homo sapiens, UniProt P51812); assay: KINOMEscan: RSK2(Kin.Dom.2-C-terminal); format: binding; settings: 100 nM, read-out: Percent Control
ERK1 = ERK1 (Homo sapiens, UniProt P27361); assay: KINOMEscan: ERK1; format: binding; settings: 1000 nM, read-out: Percent Control
MARK3 = MARK3 (Homo sapiens, UniProt P27448); assay: KINOMEscan: MARK3; format: binding; settings: 1000 nM, read-out: Percent Control
[6] = target: EGFR(L747-E749del, A750P) (Homo sapiens, UniProt P00533, A750P/DEL747-749); assay: KINOMEscan: EGFR(L747-E749del, A750P); format: binding; settings: 1000 nM, read-out: Percent Control

Sequence of AKT1 (P31749 whole entry): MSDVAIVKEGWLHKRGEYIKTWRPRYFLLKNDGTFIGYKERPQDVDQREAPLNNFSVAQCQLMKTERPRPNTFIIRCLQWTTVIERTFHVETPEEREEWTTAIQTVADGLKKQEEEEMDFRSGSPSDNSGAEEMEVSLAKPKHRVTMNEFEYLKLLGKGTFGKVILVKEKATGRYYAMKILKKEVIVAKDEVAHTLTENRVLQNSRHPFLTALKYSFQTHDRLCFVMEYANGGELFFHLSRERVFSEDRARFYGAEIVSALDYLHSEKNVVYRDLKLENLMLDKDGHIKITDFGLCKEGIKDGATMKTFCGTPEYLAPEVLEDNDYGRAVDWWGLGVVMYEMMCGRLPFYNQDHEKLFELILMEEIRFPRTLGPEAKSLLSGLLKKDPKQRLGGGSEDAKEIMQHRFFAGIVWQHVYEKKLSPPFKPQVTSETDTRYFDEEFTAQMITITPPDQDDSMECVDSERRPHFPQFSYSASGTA
Sequence of ZAK (Q9NYL2 whole entry): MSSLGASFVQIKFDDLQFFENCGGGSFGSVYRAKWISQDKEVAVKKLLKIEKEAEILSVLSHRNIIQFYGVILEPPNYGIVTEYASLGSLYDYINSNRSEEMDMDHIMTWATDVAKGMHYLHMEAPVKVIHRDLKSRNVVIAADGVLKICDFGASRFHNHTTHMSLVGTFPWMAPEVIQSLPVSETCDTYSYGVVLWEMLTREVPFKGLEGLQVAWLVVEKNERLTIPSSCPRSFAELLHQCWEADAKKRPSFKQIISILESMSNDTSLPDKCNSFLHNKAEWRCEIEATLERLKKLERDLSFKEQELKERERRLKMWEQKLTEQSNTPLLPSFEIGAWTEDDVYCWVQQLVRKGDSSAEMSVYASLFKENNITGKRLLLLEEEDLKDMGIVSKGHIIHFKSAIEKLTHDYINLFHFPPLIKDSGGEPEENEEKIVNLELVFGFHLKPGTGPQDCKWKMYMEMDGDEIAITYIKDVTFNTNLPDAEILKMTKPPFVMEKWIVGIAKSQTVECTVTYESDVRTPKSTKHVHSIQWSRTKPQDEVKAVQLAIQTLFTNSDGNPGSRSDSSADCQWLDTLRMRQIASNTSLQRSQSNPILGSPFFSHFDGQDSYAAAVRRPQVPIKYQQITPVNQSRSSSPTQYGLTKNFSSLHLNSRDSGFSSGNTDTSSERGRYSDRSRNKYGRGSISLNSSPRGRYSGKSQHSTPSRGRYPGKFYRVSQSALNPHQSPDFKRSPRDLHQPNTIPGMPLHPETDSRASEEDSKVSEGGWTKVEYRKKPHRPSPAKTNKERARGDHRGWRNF
Sequence of Muscarinic M2 (P08172 whole entry): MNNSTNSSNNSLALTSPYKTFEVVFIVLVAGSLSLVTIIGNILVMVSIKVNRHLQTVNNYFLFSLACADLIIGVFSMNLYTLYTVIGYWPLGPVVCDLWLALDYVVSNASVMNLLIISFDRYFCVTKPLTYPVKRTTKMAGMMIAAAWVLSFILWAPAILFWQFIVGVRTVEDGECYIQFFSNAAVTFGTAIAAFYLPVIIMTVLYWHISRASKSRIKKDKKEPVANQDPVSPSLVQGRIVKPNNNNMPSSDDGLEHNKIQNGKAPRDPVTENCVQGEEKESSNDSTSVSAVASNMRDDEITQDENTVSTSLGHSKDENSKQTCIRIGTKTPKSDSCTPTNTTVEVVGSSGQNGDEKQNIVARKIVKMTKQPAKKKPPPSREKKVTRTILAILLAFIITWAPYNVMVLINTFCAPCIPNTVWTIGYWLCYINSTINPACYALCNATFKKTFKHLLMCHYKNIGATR
Sequence of AMPK-alpha1 (Q13131 whole entry): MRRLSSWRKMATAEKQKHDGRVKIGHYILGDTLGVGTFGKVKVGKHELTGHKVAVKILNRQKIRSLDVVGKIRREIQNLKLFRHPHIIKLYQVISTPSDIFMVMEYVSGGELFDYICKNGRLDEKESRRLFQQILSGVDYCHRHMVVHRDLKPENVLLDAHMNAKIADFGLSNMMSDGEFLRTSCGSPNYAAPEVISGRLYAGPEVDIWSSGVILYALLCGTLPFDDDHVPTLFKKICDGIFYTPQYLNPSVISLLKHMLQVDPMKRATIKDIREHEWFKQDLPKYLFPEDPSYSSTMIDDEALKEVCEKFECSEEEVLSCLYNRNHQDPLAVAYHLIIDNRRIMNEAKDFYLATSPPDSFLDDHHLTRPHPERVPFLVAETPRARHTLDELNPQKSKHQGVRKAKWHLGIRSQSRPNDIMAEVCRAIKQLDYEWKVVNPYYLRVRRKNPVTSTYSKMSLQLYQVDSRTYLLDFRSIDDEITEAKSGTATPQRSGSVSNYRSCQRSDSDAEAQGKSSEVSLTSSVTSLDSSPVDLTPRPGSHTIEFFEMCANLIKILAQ
Sequence of Prostanoid EP4 (P35408 whole entry): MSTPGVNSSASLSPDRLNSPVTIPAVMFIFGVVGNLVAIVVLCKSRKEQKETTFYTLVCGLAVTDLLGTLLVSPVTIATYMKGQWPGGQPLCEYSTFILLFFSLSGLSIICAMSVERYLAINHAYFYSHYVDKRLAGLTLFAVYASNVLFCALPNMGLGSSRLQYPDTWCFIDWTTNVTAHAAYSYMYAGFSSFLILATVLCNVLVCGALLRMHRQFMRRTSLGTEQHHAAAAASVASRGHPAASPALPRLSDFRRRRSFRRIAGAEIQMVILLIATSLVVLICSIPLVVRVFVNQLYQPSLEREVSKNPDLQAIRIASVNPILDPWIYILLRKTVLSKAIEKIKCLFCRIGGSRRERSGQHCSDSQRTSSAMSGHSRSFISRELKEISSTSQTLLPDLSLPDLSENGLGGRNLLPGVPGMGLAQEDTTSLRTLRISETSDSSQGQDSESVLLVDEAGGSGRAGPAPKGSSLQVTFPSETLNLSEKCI
Sequence of MAP3K3 (Q99759 whole entry): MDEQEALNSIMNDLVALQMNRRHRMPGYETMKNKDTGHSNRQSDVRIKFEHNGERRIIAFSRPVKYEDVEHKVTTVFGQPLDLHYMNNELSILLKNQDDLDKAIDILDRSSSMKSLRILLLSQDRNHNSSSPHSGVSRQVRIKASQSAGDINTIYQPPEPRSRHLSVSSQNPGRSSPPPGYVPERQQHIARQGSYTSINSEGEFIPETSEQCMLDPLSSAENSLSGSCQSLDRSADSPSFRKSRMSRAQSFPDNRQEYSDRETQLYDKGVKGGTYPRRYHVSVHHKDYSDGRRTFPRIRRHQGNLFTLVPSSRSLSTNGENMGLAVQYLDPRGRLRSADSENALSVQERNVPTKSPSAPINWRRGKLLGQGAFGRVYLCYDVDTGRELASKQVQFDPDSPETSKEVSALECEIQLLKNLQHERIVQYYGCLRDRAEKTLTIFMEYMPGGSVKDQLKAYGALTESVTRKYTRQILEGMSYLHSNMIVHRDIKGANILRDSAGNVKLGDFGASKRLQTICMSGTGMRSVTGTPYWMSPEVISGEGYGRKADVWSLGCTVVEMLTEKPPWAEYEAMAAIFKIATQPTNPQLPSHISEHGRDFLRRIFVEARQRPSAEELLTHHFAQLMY
Sequence of MINK (Q8N4C8 whole entry): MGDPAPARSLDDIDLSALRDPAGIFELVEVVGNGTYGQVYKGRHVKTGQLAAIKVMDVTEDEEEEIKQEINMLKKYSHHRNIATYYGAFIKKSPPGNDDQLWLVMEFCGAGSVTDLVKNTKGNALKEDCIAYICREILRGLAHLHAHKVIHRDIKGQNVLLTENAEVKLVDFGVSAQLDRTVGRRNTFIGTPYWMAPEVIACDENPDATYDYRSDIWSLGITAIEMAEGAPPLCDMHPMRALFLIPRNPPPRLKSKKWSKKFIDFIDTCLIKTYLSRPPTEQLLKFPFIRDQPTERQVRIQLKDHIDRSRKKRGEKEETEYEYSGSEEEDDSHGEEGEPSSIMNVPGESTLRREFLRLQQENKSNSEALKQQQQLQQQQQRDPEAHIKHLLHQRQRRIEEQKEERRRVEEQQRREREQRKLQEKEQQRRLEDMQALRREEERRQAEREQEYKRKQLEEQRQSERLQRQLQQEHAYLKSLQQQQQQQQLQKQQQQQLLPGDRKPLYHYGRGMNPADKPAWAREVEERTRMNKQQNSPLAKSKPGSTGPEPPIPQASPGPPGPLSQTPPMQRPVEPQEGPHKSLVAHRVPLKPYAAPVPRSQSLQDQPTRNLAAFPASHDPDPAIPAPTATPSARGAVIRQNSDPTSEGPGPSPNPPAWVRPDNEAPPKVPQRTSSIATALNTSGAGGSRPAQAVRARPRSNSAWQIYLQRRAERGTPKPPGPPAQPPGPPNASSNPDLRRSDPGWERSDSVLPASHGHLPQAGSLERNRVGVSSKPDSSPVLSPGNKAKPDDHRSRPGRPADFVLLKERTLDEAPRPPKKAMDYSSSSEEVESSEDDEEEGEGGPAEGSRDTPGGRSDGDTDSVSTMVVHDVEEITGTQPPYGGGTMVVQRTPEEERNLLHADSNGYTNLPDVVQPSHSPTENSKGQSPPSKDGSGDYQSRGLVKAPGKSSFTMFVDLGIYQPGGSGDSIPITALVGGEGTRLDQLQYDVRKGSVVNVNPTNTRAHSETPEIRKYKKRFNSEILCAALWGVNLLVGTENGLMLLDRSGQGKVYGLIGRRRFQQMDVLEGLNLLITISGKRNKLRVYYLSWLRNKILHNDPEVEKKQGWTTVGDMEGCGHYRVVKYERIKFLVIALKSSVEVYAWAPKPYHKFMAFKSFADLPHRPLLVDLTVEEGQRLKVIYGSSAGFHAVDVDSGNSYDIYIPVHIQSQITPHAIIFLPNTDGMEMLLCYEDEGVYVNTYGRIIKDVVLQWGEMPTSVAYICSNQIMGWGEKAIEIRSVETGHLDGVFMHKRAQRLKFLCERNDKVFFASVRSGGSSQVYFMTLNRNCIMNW

Structure (SMILES): COc1cc(F)ccc1-c1cc(Nc2cc(CS(C)(=N)=O)ccn2)ncc1F (stereo not drawn) [VIP152]
- remaining binding at 1 µM (MAP3K3): 86%
- remaining binding at 1 µM (MAP4K5): 41%
- remaining binding at 1 µM (MINK): 29%
- inhibition at 10 µM (Adrenergic α1D): 19%
- remaining binding at 1 µM (GRK2): 98%
- remaining binding at 1 µM (MLK3): 87%
- sensitivity to induction of apoptosis (OSU-CLL): highest sensitivity to induction of apoptosis
- remaining binding at 0.1 µM (SIK2): 63%
- IC50 (Imidazoline I2, Central): 1400 nM
- Ki (Imidazoline I2, Central): 930 nM
- % Inh. (Imidazoline I2, Central; Conc. 10 μM): 82%
- inhibition at 10 µM [1]: -15%
- remaining binding at 1 µM (CAMK1): 78%
- remaining binding at 1 µM (MAP4K2): 26%
- inhibition at 10 µM (Prostanoid EP4): 24%
- remaining binding at 1 µM (KIT(V559D,V654A)): 100%
- remaining binding at 0.1 µM (TRKA): 65%
- potency versus the other inhibitors [2]: higher potency
- remaining binding at 1 µM (CASK): 95%
- remaining binding at 1 µM (DLK): 90%
- remaining binding at 1 µM (AMPK-alpha1): 91%
- inhibition at 10 µM (Glutamate, NMDA, Glycine): 12%
- inhibition at 10 µM (Opiate δ1 (OP1, DOP)): 9%
- remaining binding at 0.1 µM (YES): 100%
- remaining binding at 1 µM [3]: 74%
- remaining binding at 1 µM (CSNK1A1): 95%
- remaining binding at 0.1 µM (TAOK3): 88%
- remaining binding at 0.1 µM (ZAK): 100%
- remaining binding at 1 µM (MKNK1): 98%
- remaining binding at 1 µM (DAPK2): 89%
- remaining binding at 1 µM (CSNK2A1): 97%
- inhibition at 10 µM [4]: -3%
- remaining binding at 1 µM (AKT1): 99%
- remaining binding at 0.1 µM (TRKC): 83%
- inhibition at 10 µM (Muscarinic M2): -5%
- remaining binding at 1 µM (MARK2): 81%
- remaining binding at 0.1 µM (SGK): 100%
- remaining binding at 1 µM (BMPR1A): 97%
- remaining binding at 0.1 µM [5]: 100%
- remaining binding at 1 µM (ERK1): 82%
- remaining binding at 1 µM (MARK3): 100%
- remaining binding at 1 µM [6]: 80%

— paper PMC9898036, “VIP152 is a selective CDK9 inhibitor with pre-clinical in vitro and in vivo efficacy in chronic lymphocytic leukemia” (Leukemia, 2022)
